# Experimental data: patent publication EP4755886A1 (Chengdu Chipscreen Pharmaceutical Ltd., priority 2023, dated 2025)
# Tested on: gene-editing MTAP-/- human colon cancer cell strain HCT116
# Assay: Efficacy in MTAP-/- HCT116 subcutaneous xenograft mouse model
# Format: in vivo, Balb/c nude mice
# Conditions: 10 mg/kg, PO, qd, 28 days
# Description: The blank group contained 40% PEG400 normal saline with 2% DMSO. […] The test substance was intragastrically administered at 10 mg/kg once daily, and MRTX1719 was intragastrically administered at 50 mg/kg once daily. Model control: The vehicle (2% DMSO + 40% PEG400 + 58% normal saline) was intragastrically administered at a dose of 10 mL/kg once daily. Administration was performed for 28 days in total. […] The mice were euthanized on the day when the last administration was completed. […] In the formula, VTt represents the tumor volume of the treatment group at each measurement, and VT0 represents the tumor volume measured when the treatment group is grouped; VCt represents the tumor volume of the vehicle group at each measurement (same as VTt), and VC0 represents the tumor volume measured when the vehicle group is grouped. Data were analyzed using GraphPad Prism 9.0 software and expressed as Mean ± SEM (standard error). Pairwise comparisons between each administration group and the control group were performed using one-way analysis of variance (ANOVA). Variance homogeneity was determined using the Brown-Forsythe method, and variance heterogeneity was determined using the Dunnett's T3 method. Table 7. Efficacy evaluation in HCT116 subcutaneous xenograft mouse model
smiles,measurement,value
"CN(C(=O)c1cc2c(cc1F)nc(N)c1cnn(C)c12)[C@@H]1COc2cc(C#Cc3cnn(C)c3)ccc21 [Compound 5A, (S)-4-amino-7-fluoro-N,1-dimethyl-N-(6-((1-methyl-1H-pyrazol-4-yl)ethynyl)-2,3-dihydrobenzofuran-3-yl)-1H-pyrazolo[4,3-c]quinoline-8-carboxamide]",TGI,82.25%
same,Tumor volume,378.72 mm^3
